Measurements as given in ChEMBL document CHEMBL5463729, “Data for DCP probe BAY 1753011” (2023).
Blank lines part the entries; values can stand above or below the compound they belong to.

What was measured:
Vasopressin V2 receptor = Vasopressin V2 receptor (Homo sapiens, UniProt P30518); assay: Inhibition of Vasopressin V2 at 10 µM in the Eurofins-Panlabs radioligand binding assay (Eurofins_assay_287610); parameters: ligand concentration 4 nM; conditions: Compound concentration 10.0 uM
[1] = molecular target: Calcium/calmodulin-dependent protein kinase type 1B (Homo sapiens) (UniProt Q6P2M8); assay: Inhibition of CaMKIbeta(h) at 10.0 µM in the Eurofins Kinase panel; conditions: Compound concentration 10.0 uM
[2] = molecular target: Cyclin-dependent kinase-like 2 (Homo sapiens) (UniProt Q92772); assay: Inhibition of CDKL2(h) at 10.0 µM in the Eurofins Kinase panel; conditions: Compound concentration 10.0 uM
[3] = molecular target: Tyrosine-protein kinase Fes/Fps (Homo sapiens) (UniProt P07332); assay: Inhibition of Fes(h) at 10.0 µM in the Eurofins Kinase panel; conditions: Compound concentration 10.0 uM
[4] = molecular target: Fibroblast growth factor receptor 3 (Homo sapiens) (UniProt P22607); assay: Inhibition of FGFR3(h) at 10.0 µM in the Eurofins Kinase panel; conditions: Compound concentration 10.0 uM
Fibroblast growth factor receptor 3 (Homo sapiens), sequence (P22607 23-806 limits assumed): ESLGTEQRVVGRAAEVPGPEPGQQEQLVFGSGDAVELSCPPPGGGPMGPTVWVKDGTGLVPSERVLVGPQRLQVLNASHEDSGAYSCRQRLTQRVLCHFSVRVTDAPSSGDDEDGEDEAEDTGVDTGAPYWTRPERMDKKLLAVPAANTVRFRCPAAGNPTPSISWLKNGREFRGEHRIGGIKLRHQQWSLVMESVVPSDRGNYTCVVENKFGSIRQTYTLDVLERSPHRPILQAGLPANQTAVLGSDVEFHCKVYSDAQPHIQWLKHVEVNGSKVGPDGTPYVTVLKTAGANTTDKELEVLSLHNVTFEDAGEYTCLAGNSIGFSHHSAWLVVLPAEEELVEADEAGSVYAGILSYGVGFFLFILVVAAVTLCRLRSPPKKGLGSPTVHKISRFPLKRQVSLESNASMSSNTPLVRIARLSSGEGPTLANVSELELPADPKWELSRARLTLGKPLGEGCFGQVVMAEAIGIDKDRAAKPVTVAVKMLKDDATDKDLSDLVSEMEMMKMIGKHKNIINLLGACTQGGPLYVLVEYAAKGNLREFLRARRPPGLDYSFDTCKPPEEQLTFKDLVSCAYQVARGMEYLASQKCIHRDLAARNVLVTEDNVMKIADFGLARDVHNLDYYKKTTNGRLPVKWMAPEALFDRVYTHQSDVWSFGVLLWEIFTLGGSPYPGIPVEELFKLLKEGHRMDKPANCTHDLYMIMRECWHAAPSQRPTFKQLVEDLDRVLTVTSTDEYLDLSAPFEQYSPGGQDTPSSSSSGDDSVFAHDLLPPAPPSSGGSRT

[5] = molecular target: Fibroblast growth factor receptor 4 (Homo sapiens) (UniProt P22455); assay: Inhibition of FGFR4(h) at 10.0 µM in the Eurofins Kinase panel; conditions: Compound concentration 10.0 uM
[6] = molecular target: Tyrosine-protein kinase Lck (Homo sapiens) (UniProt P06239); assay: Inhibition of Lck(h) at 10.0 µM in the Eurofins Kinase panel; conditions: Compound concentration 10.0 uM
Tyrosine-protein kinase Lck (Homo sapiens), sequence (P06239 2-509 limits assumed): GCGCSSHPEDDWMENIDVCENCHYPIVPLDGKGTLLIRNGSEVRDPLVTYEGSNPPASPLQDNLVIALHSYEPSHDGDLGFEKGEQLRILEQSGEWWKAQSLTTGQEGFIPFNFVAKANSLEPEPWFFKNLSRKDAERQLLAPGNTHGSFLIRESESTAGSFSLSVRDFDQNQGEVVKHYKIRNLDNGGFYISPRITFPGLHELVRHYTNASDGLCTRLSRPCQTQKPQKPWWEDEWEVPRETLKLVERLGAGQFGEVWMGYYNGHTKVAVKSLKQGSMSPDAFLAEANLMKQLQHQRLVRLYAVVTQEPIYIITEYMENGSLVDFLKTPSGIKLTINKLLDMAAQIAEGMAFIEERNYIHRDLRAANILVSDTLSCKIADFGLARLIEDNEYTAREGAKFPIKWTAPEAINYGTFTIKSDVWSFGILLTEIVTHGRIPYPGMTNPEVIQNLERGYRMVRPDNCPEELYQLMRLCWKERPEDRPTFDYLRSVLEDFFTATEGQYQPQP

[7] = molecular target: GABA-A receptor; anion channel (Rattus norvegicus) (UniProt O09028+P15431+P18506+P18508+P19969+P20236+P23574+P23576+P28471+P28473+P30191+P62813+P63079+P63138+Q91ZM7+Q9ES14); conditions: Compound concentration 10.0 uM
[8] = molecular target: Motilin receptor (Homo sapiens) (UniProt O43193); conditions: Compound concentration 10.0 uM
Motilin receptor (Homo sapiens), sequence (O43193 whole entry): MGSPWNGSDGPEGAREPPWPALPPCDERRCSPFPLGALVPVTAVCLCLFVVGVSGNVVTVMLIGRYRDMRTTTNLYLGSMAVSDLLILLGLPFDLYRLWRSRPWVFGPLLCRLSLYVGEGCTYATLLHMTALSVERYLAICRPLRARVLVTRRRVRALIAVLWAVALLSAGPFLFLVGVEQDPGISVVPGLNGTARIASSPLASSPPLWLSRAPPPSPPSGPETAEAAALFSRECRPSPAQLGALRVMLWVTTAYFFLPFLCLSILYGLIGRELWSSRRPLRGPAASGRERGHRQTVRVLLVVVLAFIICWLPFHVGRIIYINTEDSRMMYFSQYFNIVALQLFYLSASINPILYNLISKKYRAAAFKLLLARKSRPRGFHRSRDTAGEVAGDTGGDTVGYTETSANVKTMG

[9] = molecular target: T1, Alpha-1D adrenergic receptor (Homo sapiens) (UniProt P25100); assay: Inhibition of Adrenergic alpha1D at 10 µM in the Eurofins-Panlabs radioligand binding assay (Eurofins_assay_203400); conditions: Compound concentration 10.0 uM
T1 sequence (whole entry): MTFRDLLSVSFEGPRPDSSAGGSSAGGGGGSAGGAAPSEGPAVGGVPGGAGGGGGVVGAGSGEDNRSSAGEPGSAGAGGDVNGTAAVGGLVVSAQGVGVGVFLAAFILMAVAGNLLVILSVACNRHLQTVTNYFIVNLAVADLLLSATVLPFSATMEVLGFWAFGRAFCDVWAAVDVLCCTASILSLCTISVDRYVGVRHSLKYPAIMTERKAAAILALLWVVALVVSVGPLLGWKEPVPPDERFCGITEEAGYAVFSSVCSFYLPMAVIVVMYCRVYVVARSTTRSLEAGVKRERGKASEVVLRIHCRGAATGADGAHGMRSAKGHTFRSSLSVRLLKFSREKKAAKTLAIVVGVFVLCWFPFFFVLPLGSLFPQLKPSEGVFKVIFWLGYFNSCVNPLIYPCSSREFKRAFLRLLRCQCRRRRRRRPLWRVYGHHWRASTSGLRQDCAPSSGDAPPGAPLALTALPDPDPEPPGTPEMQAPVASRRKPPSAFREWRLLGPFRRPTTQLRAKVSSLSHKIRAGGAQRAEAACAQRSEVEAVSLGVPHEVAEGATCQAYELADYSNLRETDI

[10] = molecular target: B1 bradykinin receptor (Homo sapiens) (UniProt P46663); assay: Inhibition of Bradykinin B1 at 10 µM in the Eurofins-Panlabs radioligand binding assay (Eurofins_assay_212510); conditions: Compound concentration 10.0 uM
B1 bradykinin receptor (Homo sapiens), sequence (P46663 whole entry): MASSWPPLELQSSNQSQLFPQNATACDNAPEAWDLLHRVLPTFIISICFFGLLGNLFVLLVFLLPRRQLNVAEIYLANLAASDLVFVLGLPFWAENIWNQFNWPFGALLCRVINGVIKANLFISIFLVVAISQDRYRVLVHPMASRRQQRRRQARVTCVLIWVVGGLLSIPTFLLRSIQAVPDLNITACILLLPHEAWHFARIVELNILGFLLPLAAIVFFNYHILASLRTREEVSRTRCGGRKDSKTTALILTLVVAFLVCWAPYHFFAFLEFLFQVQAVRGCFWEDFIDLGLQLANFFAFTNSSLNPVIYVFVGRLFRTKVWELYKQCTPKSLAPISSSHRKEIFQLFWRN

Mus musculus = species: Mus musculus; assay: Inhibition of Interleukin IL-1 at 10 µM in the Eurofins-Panlabs radioligand binding assay (Eurofins_assay_243520); parameters: ligand concentration 0.1 nM; conditions: Compound concentration 10.0 uM
[11] = molecular target: Platelet-activating factor receptor (Homo sapiens) (UniProt P25105); assay: Inhibition of Platelet Activating Factor (PAF) at 10 µM in the Eurofins-Panlabs radioligand binding assay (Eurofins_assay_265010); conditions: Compound concentration 10.0 uM
Platelet-activating factor receptor (Homo sapiens), sequence (P25105 whole entry): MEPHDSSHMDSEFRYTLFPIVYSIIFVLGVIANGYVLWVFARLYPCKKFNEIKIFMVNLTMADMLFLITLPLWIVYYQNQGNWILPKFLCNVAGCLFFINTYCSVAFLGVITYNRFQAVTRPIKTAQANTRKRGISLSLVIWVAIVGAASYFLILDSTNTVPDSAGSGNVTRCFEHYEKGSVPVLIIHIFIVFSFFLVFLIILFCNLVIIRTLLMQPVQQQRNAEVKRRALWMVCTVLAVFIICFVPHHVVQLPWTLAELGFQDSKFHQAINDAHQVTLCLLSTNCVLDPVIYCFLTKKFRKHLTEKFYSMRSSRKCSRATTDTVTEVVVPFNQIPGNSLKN

[12] = molecular target: ATP-sensitive inward rectifier potassium channel 11 (Cricetulus griseus) (UniProt A0A3L7HHE1); assay: Inhibition of Potassium Channel [KATP] at 10 µM in the Eurofins-Panlabs radioligand binding assay (Eurofins_assay_265600); conditions: Cricetinae; Compound concentration 10.0 uM
ATP-sensitive inward rectifier potassium channel 11 (Cricetulus griseus), sequence (A0A3L7HHE1 as listed by the source): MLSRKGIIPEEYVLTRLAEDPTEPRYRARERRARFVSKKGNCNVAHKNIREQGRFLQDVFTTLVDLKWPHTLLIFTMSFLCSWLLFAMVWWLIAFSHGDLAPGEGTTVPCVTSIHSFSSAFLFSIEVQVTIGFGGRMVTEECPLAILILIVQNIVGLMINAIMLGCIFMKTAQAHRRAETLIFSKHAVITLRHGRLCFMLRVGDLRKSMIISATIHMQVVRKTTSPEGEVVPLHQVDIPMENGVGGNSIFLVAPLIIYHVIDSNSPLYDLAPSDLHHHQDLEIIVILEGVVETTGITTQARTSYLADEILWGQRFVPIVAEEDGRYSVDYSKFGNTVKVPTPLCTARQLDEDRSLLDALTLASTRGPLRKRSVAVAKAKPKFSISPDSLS

Rattus norvegicus = species: Rattus norvegicus; assay: Inhibition of Rolipram at 10 µM in the Eurofins-Panlabs radioligand binding assay (Eurofins_assay_268811); type: protein assay; parameters: ligand concentration 1.8 nM; conditions: Compound concentration 10.0 uM
[13] = molecular target: Carbonic anhydrase 2 (Homo sapiens) (UniProt P00918); assay: Inhibition of Carbonic Anhydrase II at compound concentration of 10.0 uM in the Eurofins-Panlabs enzyme assay (Eurofins_assay_112020); parameters: substrate with concentration; conditions: Compound concentration 10.0 uM
[14] = molecular target: Receptor-type tyrosine-protein phosphatase C (Homo sapiens) (UniProt P08575); assay: Inhibition of Protein Tyrosine Phosphatase, PTPRC (CD45) at 10 µM in the Eurofins-Panlabs enzyme assay (Eurofins_assay_190010); conditions: Compound concentration 10.0 uM
Receptor-type tyrosine-protein phosphatase C (Homo sapiens), sequence (P08575 whole entry): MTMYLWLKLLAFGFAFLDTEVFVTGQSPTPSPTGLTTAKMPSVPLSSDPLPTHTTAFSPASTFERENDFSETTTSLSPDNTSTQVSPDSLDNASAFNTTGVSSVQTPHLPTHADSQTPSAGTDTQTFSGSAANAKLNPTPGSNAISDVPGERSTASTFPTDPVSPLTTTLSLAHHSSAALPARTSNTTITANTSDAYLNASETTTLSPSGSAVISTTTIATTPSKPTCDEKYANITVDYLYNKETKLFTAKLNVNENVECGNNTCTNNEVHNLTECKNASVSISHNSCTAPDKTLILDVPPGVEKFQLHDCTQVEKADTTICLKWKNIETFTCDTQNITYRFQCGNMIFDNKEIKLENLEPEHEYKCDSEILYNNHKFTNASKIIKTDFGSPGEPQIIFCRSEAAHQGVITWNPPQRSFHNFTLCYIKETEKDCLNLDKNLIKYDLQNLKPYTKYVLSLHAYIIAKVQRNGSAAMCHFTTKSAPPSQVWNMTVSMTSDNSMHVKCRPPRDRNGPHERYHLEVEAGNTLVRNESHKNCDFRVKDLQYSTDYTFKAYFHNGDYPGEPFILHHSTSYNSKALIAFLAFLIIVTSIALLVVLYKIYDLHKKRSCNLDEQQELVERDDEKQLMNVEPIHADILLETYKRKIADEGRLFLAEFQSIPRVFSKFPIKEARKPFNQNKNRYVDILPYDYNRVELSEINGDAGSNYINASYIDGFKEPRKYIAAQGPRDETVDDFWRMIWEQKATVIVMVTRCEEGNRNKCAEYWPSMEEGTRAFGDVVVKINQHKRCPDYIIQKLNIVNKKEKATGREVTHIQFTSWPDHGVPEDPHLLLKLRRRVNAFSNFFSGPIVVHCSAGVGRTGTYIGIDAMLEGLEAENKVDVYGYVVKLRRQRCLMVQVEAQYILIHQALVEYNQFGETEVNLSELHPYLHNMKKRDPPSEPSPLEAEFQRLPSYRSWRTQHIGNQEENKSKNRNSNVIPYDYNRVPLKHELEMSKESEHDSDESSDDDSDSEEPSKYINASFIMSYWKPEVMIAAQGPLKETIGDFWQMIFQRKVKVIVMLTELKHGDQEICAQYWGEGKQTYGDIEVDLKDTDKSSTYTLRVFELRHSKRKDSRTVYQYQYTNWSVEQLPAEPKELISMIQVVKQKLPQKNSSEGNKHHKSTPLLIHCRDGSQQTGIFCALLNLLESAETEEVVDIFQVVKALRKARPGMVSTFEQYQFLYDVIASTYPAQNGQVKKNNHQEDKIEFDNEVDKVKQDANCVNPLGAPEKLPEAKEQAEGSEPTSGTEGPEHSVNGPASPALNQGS

[15] = molecular target: C-X-C chemokine receptor type 2 (Homo sapiens) (UniProt P25025); assay: Inhibition of Chemokine CXCR2 (IL-8RB) at 10 µM in the Eurofins-Panlabs radioligand binding assay (Eurofins_assay_244500); conditions: Compound concentration 10.0 uM
C-X-C chemokine receptor type 2 (Homo sapiens), sequence (P25025 whole entry): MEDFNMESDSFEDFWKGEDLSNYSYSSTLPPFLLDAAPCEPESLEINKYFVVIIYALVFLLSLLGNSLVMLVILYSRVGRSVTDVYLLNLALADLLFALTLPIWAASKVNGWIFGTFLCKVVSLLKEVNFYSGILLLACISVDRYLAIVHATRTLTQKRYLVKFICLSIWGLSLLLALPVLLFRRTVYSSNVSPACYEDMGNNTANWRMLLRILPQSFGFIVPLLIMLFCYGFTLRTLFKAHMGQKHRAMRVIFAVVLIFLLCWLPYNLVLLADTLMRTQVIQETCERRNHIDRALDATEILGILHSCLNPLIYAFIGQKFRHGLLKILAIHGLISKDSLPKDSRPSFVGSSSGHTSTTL

[16] = molecular target: T2, 5-hydroxytryptamine receptor 3A (Homo sapiens) (UniProt P46098); assay: Inhibition of Serotonin (5-Hydroxytryptamine) 5-HT3 at 10 µM in the Eurofins-Panlabs radioligand binding assay (Eurofins_assay_271910); parameters: ligand concentration 0.69 nM; conditions: Compound concentration 10.0 uM
T2 sequence (whole entry): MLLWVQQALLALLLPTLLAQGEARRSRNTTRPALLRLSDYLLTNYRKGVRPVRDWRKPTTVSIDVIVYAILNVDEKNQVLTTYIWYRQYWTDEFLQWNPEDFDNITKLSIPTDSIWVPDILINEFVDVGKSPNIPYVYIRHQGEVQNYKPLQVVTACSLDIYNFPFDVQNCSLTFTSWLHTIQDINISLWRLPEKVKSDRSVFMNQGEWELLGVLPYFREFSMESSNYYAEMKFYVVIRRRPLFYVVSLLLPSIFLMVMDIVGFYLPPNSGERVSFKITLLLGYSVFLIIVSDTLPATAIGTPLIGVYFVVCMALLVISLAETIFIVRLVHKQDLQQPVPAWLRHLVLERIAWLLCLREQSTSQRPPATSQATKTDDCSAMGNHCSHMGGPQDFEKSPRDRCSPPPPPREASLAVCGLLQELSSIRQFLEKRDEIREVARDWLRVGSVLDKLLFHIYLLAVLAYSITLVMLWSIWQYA

[17] = molecular target: Aldo-keto reductase family 1 member B1 (Rattus norvegicus) (UniProt P07943); assay: Inhibition of Aldose Reductase at compound concentration of 10.0 uM in the Eurofins-Panlabs enzyme assay (Eurofins_assay_107000); parameters: substrate with concentration; conditions: Compound concentration 10.0 uM
[18] = molecular target: Tyrosine-protein kinase SYK (Homo sapiens) (UniProt P43405); assay: Inhibition of Syk(h) at 10.0 µM in the Eurofins Kinase panel; conditions: Compound concentration 10.0 uM
[19] = molecular target: Mitogen-activated protein kinase kinase kinase 20 (Homo sapiens) (UniProt Q9NYL2); assay: Inhibition of ZAK(h) at 10.0 µM in the Eurofins Kinase panel; conditions: Compound concentration 10.0 uM
[20] = molecular target: Beta-2 adrenergic receptor (Homo sapiens) (UniProt P07550); conditions: Compound concentration 10.0 uM
Beta-2 adrenergic receptor (Homo sapiens), sequence (P07550 whole entry, looked up): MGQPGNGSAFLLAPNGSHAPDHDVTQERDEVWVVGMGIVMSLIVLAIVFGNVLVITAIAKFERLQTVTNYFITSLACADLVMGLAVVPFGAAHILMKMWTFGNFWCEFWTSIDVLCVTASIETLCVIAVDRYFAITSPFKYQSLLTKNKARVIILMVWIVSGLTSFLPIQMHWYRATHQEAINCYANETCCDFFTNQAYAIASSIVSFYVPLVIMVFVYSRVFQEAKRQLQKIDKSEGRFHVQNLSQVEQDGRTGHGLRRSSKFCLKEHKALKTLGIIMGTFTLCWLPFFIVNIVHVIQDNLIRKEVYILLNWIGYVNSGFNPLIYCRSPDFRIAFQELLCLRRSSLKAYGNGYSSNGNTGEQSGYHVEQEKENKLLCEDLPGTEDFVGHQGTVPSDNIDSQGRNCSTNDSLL

inhibition (Vasopressin V2 receptor): 29% | inhibition [1]: -8.98% | inhibition [2]: -7.41% | inhibition [3]: -7.81% | inhibition [4]: -0.44% | inhibition [5]: -8.35% | inhibition [6]: -7.91% | inhibition [7]: -3.13% | inhibition [8]: 12%
SMILES: O=c1n(Cc2cncn2-c2cccc(Cl)c2)nc(-c2ccc(Cl)cc2)n1C[C@H](O)C(F)(F)F

SMILES: C[C@H](O)c1nc(Cn2nc(-c3ccc(Cl)cc3)n(C[C@H](O)C(F)(F)F)c2=O)nn1-c1cccc(Cl)c1 [PECAVAPTAN]
inhibition [9]: 1% | inhibition [10]: 0% | inhibition (Mus musculus): 15% | inhibition [11]: 17% | inhibition [12]: 18% | inhibition (Rattus norvegicus): -2% | inhibition [13]: -4% | inhibition [14]: 0% | inhibition [15]: -6% | inhibition [16]: -2% | inhibition [17]: 6% | inhibition [18]: -8.56% | inhibition [19]: -4.87% | inhibition [20]: -4.34%
